Reference: patent US20060030608A1, “Anti aromatase compounds pharmaceutical compositions and uses thereof” (Boehringer Ingelheim Pharmaceuticals, Inc., priority 2004, published 2006)

Molecular target: T1, recombinant human aromatase (CYP19) (Homo sapiens, UniProt P11511)
T1 construct: purchased GENTEST 456260; host or cells: baculovirus/insect cells
T1 sequence (P11511 1-503): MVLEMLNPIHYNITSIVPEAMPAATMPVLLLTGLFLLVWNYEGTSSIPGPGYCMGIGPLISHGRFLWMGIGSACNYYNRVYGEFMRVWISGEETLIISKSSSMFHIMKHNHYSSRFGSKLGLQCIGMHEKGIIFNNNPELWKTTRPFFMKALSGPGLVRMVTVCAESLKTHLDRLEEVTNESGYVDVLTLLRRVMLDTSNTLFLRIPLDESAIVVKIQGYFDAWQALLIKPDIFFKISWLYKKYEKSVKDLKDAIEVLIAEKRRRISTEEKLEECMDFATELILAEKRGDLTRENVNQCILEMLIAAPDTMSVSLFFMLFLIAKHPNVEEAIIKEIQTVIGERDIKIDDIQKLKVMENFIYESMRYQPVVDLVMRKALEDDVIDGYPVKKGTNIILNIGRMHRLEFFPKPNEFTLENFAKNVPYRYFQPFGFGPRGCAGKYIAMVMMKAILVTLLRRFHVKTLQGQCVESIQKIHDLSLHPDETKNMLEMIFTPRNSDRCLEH
Test: aromatase (CYP19) inhibition assay, fluorometric substrate dibenzylfluorescein (DBF)
Assay type: biochemical
Conditions: recombinant human aromatase (baculovirus/insect cell expressed), test compounds 2×10^−5 to 10^−9 M, 37° C. for 30 minutes
Procedure: Compounds of the invention were evaluated for inhibiting aromatase enzyme using the following aromatase (CYP19) inhibition assay which detects aromatase inhibitors utilizing recombinant human aromatase (baculovirus/insect cell expressed) and the fluorometric substrate dibenzylfluorescein (DBF). Aromatase will metabolize DBF to fluorescein which will give the fluorescent signal. The assay is conducted in 96-well black, Falcon plate (BD Biosciences, Cat. No. 353241) in the total volume of 100 μL per well. 40 μL of the Cofactor/Dilution buffer (1) is added to the plate followed by 10 μL of serially diluted test compounds in duplicates for final concentration of 2×10^−5 to 10^−9 M, or 10 μL of phosphate buffer for positive and background control wells. After 10 minutes of preincubation at 37° C., the reaction is initiated by adding 50 μL of prewarmed Enzyme/Substrate Mix (2) to the test compound wells, and positive control wells (maximum activity of CYP19, which represents 100%). The plate is incubated at 37° C. for 30 minutes. To stop the reaction, 37.5 μL of 2 N NaOH is added to all wells. For background controls, 50 μL of Enzyme/Substrate Mix (2) are added into background control wells. The plate is left at 37° C. incubator for 2 hours to develop adequate signal to background ratio. Fluorescence per well is measured in the fluorescent plate reader. The metabolite concentration is measured using excitation wavelength of 485 nm and emission wavelength of 538 nm. Inhibition of aromatase by test compounds is expressed in percentage relative to positive controls. IC50 values for the test compounds are derived from non-liner curve fitting. • (1) Cofactor/Dilution buffer: 50 mM phosphate buffer, pH=7.4; 1× NADPH regenerating system A (20× stock, GENTEST, Cat. No. 451220); 1× NAPDH regenerating system B (100× stock, GENTEST, Cat. No. 451200) and 0.2 mg/mL control protein (Insect Cell Control Supersomes, GENTEST, Cat. No. 456200) • (2) Enzyme/Substrate Mix: 50 mM phosphate buffer, pH=7.4, 0.02 nmole/mL human aromatase protein (Human CYP19+P450 Reductase Supersomes, GENTEST, Cat. No. 456260); 0.4 μM dibenzylfluorescein (DBF, GENTEST, Cat. No. 451750, prepared at 2 mM concentration in acetonitrile); 0.5 mg/mL control protein (Insect Cell Control Supersomes, GENTEST, Cat. No. 456200).

aromatase inhibition | Compound
showed aromatase inhibition | CC(C)(CC(O)(Cc1cc2ccncc2[nH]1)C(F)(F)F)c1cccc(F)c1 (centres unmarked) [1,1,1-Trifluoro-4-(3-fluorophenyl)-4-methyl-2-(1H-pyrrolo[2,3-c]pyridin-2-ylmethyl)pentan-2-ol]
showed aromatase inhibition | COc1cc(F)ccc1C(C)(C)CC(O)(Cc1cc2ccncc2[nH]1)C(F)(F)F (centres unmarked) [1,1,1-Trifluoro-4-(4-fluoro-2-methoxyphenyl)-4-methyl-2-(1H-pyrrolo[2,3-c]pyridin-2-ylmethyl)pentan-2-ol]
showed aromatase inhibition | COc1ccc(F)cc1C(C)(C)CC(O)(Cc1cc2ccncc2[nH]1)C(F)(F)F (centres unmarked) [1,1,1-Trifluoro-4-(5-fluoro-2-methoxyphenyl)-4-methyl-2-(1H-pyrrolo[2,3-c]pyridin-2-ylmethyl)pentan-2-ol]
showed aromatase inhibition | COc1ccc(F)cc1C(C)(C)CC(O)(Cc1cc2ncncc2[nH]1)C(F)(F)F (centres unmarked) [1,1,1-Trifluoro-4-(5-fluoro-2-methoxyphenyl)-4-methyl-2-(5H-pyrrolo[3,2-d]pyrimidin-6-ylmethyl)pentan-2-ol]
showed aromatase inhibition | COc1ccc(F)cc1C(C)(C)CC(O)(Cc1cc2cncnc2[nH]1)C(F)(F)F (centres unmarked) [1,1,1-Trifluoro-4-(5-fluoro-2-methoxyphenyl)-4-methyl-2-(7H-pyrrolo[2,3-d]pyrimidin-6-ylmethyl)pentan-2-ol]
showed aromatase inhibition | COc1ccc(F)cc1C(C)(C)CC(O)(Cc1cc2ccncc2s1)C(F)(F)F (centres unmarked) [1,1,1-Trifluoro-4-(5-fluoro-2-methoxyphenyl)-4-methyl-2-thieno[2,3-c]pyridin-2-ylmethylpentan-2-ol]
showed aromatase inhibition | Cc1ccc(F)cc1C(C)(C)CC(O)(Cc1cc2ncncc2[nH]1)C(F)(F)F (centres unmarked) [1,1,1-Trifluoro-4-(5-fluoro-2-methylphenyl)-4-methyl-2-(5H-pyrrolo[3,2-d]pyrimidin-6-ylmethyl)pentan-2-ol]
showed aromatase inhibition | COc1ccc(F)cc1C(C)(C)CC(O)(Cc1cc2cnccc2[nH]1)C(F)F (centres unmarked) [1,1-Difluoro-4-(5-fluoro-2-methoxyphenyl)-4-methyl-2-(1H-pyrrolo[3,2-c]pyridin-2-ylmethyl)pentan-2-ol]
showed aromatase inhibition | COc1ccc(F)cc1C(C)(C)CC(O)(Cc1[nH]c2ccncc2c1CN(C)C)C(F)(F)F (centres unmarked) [2-(3-Dimethylaminomethyl-1H-pyrrolo[3,2-c]pyridin-2-ylmethyl)-1,1,1-trifluoro-4-(5-fluoro-2-methoxyphenyl)-4-methylpentan-2-ol]
showed aromatase inhibition | COc1ccc(F)cc1C(C)(C)CC(O)(Cc1cc2ccncc2[nH]1)C1CC1 (centres unmarked) [2-Cyclopropyl-4-(5-fluoro-2-methoxyphenyl)-4-methyl-1-(1H-pyrrolo[2,3-c]pyridin-2-yl)pentan-2-ol]
showed aromatase inhibition | COc1ccc(F)cc1C(C)(C)CC(O)(Cc1cc2ccncc2[nH]1)C(C)(C)C (centres unmarked) [5-(5-Fluoro-2-methoxyphenyl)-2,2,5-trimethyl-3-(1H-pyrrolo[2,3-c]pyridin-2-ylmethyl)hexan-3-ol]
showed aromatase inhibition | COc1ccc(F)cc1C(C)(C)CC(O)(Cc1cc2cnccc2[nH]1)C(C)(C)C (centres unmarked) [5-(5-Fluoro-2-methoxyphenyl)-2,2,5-trimethyl-3-(1H-pyrrolo[3,2-c]pyridin-2-ylmethyl)hexan-3-ol]
showed aromatase inhibition | COc1ccc(F)cc1C(C)(C)CC(O)(Cc1cc2ccncc2[nH]1)C(C)C (centres unmarked) [5-(5-Fluoro-2-methoxyphenyl)-2,5-dimethyl-3-(1H-pyrrolo[2,3-c]pyridin-2-ylmethyl)hexan-3-ol]

More lines, now with the values behind:

Compound | aromatase inhibition
CC(C)(CC(O)(Cc1cc2cnccc2[nH]1)C(F)(F)F)c1cccc(F)c1 (centres unmarked) [1,1,1-Trifluoro-4-(3-fluorophenyl)-4-methyl-2-(1H-pyrrolo[3,2-c]pyridin-2-ylmethyl)pentan-2-ol] | showed aromatase inhibition
CC(C)(CC(O)(Cc1cc2cnccc2[nH]1)C(F)(F)F)c1ccc(F)cc1 (centres unmarked) [1,1,1-Trifluoro-4-(4-fluorophenyl)-4-methyl-2-(1H-pyrrolo [3,2-c]pyridin-2-ylmethyl)pentan-2-ol] | showed aromatase inhibition
CC(C)(CC(O)(Cc1cc2ccncc2[nH]1)C(F)(F)F)c1ccc(F)cc1 (centres unmarked) [1,1,1-Trifluoro-4-(4-fluorophenyl)-4-methyl-2-(1H-pyrrolo[2,3-c]pyridin-2-ylmethyl)pentan-2-ol] | showed aromatase inhibition
Cc1cc2c(c(C(C)(C)CC(O)(Cc3cc4ccncc4[nH]3)C(F)(F)F)c1)OCC2 (centres unmarked) [1,1,1-Trifluoro-4-methyl-4-(5-methyl-2,3-dihydrobenzofuran-7-yl)-2-(1H-pyrrolo[2,3-c]pyridin-2-ylmethyl)pentan-2-ol] | showed aromatase inhibition
CC(C)(CC(O)(Cc1cc2cnccc2[nH]1)C(F)(F)F)c1ccccc1 (centres unmarked) [1,1,1-Trifluoro-4-methyl-4-phenyl-2-(1H-pyrrolo [3,2-c]pyridin-2-ylmethyl)pentan-2-ol] | showed aromatase inhibition
CC(C)(CC(O)(Cc1cc2ccncc2[nH]1)C(F)(F)F)c1ccccc1 (centres unmarked) [1,1,1-Trifluoro-4-methyl-4-phenyl-2-(1H-pyrrolo[2,3-c]pyridin-2-ylmethyl)pentan-2-ol] | showed aromatase inhibition
Cc1ccc(F)cc1C(C)(C)CC(O)(Cc1cc2ccncc2[nH]1)C1CC1 (centres unmarked) [2-Cyclopropyl-4-(5-fluoro-2-methylphenyl)-4-methyl-1-(1H-pyrrolo[2,3-c]pyridin-2-yl)pentan-2-ol] | showed aromatase inhibition
Cc1ccc(F)cc1C(C)(C)CC(O)(Cc1cc2cnccc2[nH]1)C1CC1 (centres unmarked) [2-Cyclopropyl-4-(5-fluoro-2-methylphenyl)-4-methyl-1-(1H-pyrrolo[3,2-c]pyridin-2-yl)pentan-2-ol] | showed aromatase inhibition
CC(C)(CC(O)(Cc1cc2ccncc2[nH]1)C(F)(F)F)c1cccc2c1OCC2 (centres unmarked) [4-(2,3-Dihydrobenzofuran-7-yl)-1,1,1-trifluoro-4-methyl-2-(1H-pyrrolo[2,3-c]pyridin-2-ylmethyl)pentan-2-ol] | showed aromatase inhibition
CC(C)(CC(O)(Cc1cc2cnccc2[nH]1)C(F)(F)F)c1cccc2c1OCC2 (centres unmarked) [4-(2,3-Dihydrobenzofuran-7-yl)-1,1,1-trifluoro-4-methyl-2-(1H-pyrrolo[3,2-c]pyridin-2-ylmethyl)pentan-2-ol] | showed aromatase inhibition
CC(C)(CC(O)(Cc1cc2ccncc2[nH]1)C1CC1)c1cc(Cl)cc2c1OCC2 (centres unmarked) [4-(5-Chloro-2,3-dihydrobenzofuran-7-yl)-2-cyclopropyl-4-methyl-1-(1H-pyrrolo[2,3-c]pyridin-2-yl)pentan-2-ol] | showed aromatase inhibition
CC(C)(CC(O)(Cc1cc2cnccc2[nH]1)C1CC1)c1cc(Cl)cc2c1OCC2 (centres unmarked) [4-(5-Chloro-2,3-dihydrobenzofuran-7-yl)-2-cyclopropyl-4-methyl-1-(1H-pyrrolo[3,2-c]pyridin-2-yl)pentan-2-ol] | showed aromatase inhibition
CC(C)C(O)(Cc1cc2ccncc2[nH]1)CC(C)(C)c1cc(Cl)cc2c1OCC2 (centres unmarked) [5-(5-Chloro-2,3-dihydrobenzofuran-7-yl)-2,5-dimethyl-3-(1H-pyrrolo[2,3-c]pyridin-2-ylmethyl)hexan-3-ol] | showed aromatase inhibition
